Source: patent US11208412B2 (DAEGU-GYEONGBUK MEDICAL INNOVATION FOUNDATION, priority 2017, dated 2021)

Tests used:
Test in all cases: Kinase selectivity, DiscoverX scanMAX Kinase assay panel (% control)
Assay type in all cases: binding
[1] = biological target: T1, kinases of the scanMAX Kinase assay panel (Homo sapiens, UniProt P42336, C420R); details: PIK3CA(C420R); 1 uM
T1 construct: purchased DiscoverX Co. (contract measurement) scanMAX Kinase assay panel
Procedure, shortened: (§1)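 Single-point screen, 1 uM cpd in DMSO. % ctrl = (cpd − pos ctrl)/(neg ctrl − pos ctrl)×100; pos ctrl = 0%, DMSO neg ctrl = 100%. Hit cutoff <35%.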

[2] = biological target: T2, kinases of the scanMAX Kinase assay panel (Homo sapiens, UniProt Q9UQ88); details: CDC2L2; 1 uM
T2 construct: purchased DiscoverX Co. (contract measurement) scanMAX Kinase assay panel
T2 sequence (Q9UQ88 1-783): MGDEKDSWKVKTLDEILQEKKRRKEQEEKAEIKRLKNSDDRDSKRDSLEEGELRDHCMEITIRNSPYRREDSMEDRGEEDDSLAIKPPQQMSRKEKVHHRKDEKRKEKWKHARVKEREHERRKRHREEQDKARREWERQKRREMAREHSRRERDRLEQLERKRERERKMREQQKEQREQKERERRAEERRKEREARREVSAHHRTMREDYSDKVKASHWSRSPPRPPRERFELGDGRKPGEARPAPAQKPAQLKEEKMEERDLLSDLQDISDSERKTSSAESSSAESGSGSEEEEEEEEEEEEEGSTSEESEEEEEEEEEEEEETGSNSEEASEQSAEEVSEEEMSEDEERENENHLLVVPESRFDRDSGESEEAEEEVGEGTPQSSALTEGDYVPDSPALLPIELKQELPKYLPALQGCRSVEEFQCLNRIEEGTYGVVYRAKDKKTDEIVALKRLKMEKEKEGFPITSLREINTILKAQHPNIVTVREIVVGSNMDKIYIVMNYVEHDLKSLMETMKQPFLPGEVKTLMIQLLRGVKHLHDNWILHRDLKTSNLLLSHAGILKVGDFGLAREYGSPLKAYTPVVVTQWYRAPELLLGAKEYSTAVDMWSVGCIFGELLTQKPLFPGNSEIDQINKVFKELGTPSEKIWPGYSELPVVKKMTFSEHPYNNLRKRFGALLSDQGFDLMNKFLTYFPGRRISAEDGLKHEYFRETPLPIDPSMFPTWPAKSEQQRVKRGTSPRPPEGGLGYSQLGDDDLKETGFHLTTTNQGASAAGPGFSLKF
Procedure, shortened: as §1

[3] = biological target: T3, kinases of the scanMAX Kinase assay panel (Homo sapiens, UniProt P36896); details: ACVR1B; 1 uM
T3 construct: purchased DiscoverX Co. (contract measurement) scanMAX Kinase assay panel
T3 sequence (P36896 24-505): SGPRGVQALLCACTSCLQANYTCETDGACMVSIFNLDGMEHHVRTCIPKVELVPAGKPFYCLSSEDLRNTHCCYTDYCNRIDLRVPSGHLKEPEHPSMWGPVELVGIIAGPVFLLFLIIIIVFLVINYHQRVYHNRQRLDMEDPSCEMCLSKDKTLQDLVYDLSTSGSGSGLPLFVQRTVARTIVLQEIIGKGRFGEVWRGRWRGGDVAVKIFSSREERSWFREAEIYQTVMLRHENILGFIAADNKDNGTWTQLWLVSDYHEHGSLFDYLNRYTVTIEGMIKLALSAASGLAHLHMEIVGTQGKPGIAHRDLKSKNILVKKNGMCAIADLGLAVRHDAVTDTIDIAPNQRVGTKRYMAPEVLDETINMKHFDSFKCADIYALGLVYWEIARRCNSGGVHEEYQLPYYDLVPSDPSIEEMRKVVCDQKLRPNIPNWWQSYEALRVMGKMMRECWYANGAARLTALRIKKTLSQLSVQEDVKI
Procedure, shortened: as §1

[4] = biological target: T4, kinases of the scanMAX Kinase assay panel (Homo sapiens, UniProt Q86Y07); details: kinase VRK2; 1 uM in DMSO
T4 construct: purchased DiscoverX Co. (contract measurement) scanMAX Kinase assay panel
Procedure, shortened: as §1

[5] = biological target: T5, kinases of the scanMAX Kinase assay panel (Homo sapiens, UniProt Q00536); details: PCTK1; 1 uM
T5 construct: purchased DiscoverX Co. (contract measurement) scanMAX Kinase assay panel
Procedure, shortened: as §1

[6] = biological target: T6, kinases of the scanMAX Kinase assay panel (Homo sapiens, UniProt P33981); details: kinase TTK; 1 uM in DMSO
T6 construct: purchased DiscoverX Co. (contract measurement) scanMAX Kinase assay panel
T6 sequence (P33981 1-857): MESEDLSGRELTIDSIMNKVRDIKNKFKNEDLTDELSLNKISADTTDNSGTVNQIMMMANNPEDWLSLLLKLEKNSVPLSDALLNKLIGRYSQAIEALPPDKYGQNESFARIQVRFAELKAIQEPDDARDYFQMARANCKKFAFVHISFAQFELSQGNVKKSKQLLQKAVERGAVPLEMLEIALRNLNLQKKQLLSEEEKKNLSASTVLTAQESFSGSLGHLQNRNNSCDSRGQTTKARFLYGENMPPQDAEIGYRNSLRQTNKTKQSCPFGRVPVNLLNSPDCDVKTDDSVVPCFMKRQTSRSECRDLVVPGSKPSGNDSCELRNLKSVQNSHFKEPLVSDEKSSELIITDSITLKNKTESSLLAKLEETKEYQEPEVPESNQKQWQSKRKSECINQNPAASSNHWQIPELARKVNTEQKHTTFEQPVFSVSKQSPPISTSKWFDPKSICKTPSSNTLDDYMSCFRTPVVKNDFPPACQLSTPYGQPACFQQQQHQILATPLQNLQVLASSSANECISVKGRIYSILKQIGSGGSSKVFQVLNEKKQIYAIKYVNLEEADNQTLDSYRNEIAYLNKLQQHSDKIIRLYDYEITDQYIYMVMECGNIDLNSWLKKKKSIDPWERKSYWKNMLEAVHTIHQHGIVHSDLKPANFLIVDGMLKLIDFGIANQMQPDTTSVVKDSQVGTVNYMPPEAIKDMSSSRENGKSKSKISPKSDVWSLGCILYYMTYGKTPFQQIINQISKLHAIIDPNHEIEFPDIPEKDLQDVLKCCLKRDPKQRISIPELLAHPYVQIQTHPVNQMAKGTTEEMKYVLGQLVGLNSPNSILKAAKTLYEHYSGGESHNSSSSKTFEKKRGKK
Procedure, shortened: as §1

T4 sequence (Q86Y07 whole entry): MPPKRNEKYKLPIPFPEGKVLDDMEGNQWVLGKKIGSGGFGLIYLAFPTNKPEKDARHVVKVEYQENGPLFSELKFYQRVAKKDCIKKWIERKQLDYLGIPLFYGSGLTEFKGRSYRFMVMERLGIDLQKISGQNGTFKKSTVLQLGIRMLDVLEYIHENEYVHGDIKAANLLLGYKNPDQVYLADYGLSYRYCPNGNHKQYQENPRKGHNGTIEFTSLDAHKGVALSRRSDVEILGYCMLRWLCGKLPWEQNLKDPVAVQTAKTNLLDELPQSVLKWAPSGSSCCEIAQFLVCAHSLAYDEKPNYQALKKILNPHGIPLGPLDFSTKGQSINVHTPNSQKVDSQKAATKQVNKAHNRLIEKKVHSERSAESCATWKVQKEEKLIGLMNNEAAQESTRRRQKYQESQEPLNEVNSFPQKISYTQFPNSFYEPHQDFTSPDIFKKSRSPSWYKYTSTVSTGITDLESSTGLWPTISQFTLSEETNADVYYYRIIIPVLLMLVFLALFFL
T5 sequence (Q00536 whole entry): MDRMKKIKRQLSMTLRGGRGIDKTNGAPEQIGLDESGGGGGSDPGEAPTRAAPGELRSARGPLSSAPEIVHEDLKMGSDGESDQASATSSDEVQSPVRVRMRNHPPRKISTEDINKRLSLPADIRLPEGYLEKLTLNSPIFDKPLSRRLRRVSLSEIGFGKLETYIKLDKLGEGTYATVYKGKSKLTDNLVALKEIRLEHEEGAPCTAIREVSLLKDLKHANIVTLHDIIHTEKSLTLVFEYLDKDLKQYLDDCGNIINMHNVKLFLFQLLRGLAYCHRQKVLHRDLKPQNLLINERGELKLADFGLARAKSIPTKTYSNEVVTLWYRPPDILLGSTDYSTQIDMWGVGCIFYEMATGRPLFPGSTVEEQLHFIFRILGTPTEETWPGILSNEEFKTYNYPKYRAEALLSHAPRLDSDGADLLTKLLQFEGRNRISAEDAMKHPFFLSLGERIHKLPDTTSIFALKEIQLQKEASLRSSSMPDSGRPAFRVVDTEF
T1 sequence (P42336 whole entry C420R): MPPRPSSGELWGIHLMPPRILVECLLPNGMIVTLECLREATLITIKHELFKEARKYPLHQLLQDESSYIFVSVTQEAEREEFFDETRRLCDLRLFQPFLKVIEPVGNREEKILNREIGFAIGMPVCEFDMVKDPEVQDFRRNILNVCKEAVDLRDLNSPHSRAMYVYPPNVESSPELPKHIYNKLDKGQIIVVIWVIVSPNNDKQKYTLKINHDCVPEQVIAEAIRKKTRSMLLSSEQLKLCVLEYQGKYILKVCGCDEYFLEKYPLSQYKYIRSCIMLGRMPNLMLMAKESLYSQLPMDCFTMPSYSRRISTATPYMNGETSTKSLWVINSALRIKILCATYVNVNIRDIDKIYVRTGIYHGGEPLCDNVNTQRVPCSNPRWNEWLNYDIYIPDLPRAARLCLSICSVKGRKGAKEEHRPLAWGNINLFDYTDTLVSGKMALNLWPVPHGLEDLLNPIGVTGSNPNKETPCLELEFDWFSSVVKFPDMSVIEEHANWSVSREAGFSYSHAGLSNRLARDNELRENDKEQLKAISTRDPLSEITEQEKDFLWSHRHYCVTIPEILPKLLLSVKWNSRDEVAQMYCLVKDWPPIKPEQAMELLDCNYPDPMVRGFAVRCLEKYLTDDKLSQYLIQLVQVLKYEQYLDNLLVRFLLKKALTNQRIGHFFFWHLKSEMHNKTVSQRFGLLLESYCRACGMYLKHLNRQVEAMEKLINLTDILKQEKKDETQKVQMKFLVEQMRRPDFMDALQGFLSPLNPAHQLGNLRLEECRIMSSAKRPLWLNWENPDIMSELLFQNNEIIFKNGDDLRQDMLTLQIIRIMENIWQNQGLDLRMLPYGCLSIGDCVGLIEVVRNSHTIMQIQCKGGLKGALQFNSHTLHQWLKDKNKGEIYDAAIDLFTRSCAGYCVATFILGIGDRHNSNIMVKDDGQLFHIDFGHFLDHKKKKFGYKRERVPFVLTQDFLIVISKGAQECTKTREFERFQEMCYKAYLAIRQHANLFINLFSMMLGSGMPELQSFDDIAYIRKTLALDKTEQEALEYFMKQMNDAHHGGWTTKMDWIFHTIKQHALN

| Structure (SMILES) | remaining binding at 1 µM [1] [%] | remaining binding at 1 µM [2] [%] | remaining binding at 1 µM [3] [%] | remaining binding at 1 µM [4] [%] | remaining binding at 1 µM [5] [%] | remaining binding at 1 µM [6] [%] |
| --- | --- | --- | --- | --- | --- | --- |
| CNc1nc(Nc2ccc(C(=O)N3CCOCC3)cc2OC)nc2[nH]cc(C#N)c12 [Example 1, 2-((2-methoxy-4-(morpholine-4-carbonyl)phenyl)amino)-4-(methylamino)-7H-pyrrolo[2,3-d]pyrimidine-5-carbonitrile] | 94 | 91 | 86 | 71 | 77 | 12 |
| CC1(Nc2nc(Nc3cnn([C@H]4CCN(C5COC5)C[C@@H]4F)c3Cl)nc3[nH]cc(C#N)c23)CC1 [Example 52, 2-((5-chloro-1-((3S,4S)-3-fluoro-1-(oxetane-3-yl)piperidine-4-yl)-1H-pyrazole-4-yl)amino)((1-methylcyclopropyl)amino)-7H-pyrrolo[2,3-d]pyrimidine-5-carbonitrile] | 63 | 100 | 92 | 100 | 100 | 0.25 |
| CCNc1nc(Nc2ccc(C(=O)N3CCC(N4CCOCC4)CC3)cc2OC)nc2[nH]cc(C(F)(F)F)c12 [Example 104, (4-((4-(ethylamino)-5-(trifluoromethyl)-7H-pyrrolo[2,3-d]pyrimidine-2-yl)amino)-3-methoxyphenyl)(4-morpholinopiperidine-1-yl)methanone] | 91 | 98 | 100 | 100 | 100 | 1.4 |
